Experimental data: US6673372B1, “Crystalline Efavirenz” (Bristol-Myers Squibb Pharma Company, priority 1998, dated 2004)
Blank lines part the entries; values can stand above or below the molecule they belong to.

Assay: Relative stability of the crystalline forms of Efavirenz
Type: physicochemical
Experimental: Five Forms designated as Form 1, Form 2, Form 3, form 4, Form 5 have been identified. Each Form is distinguishable from the other forms by x-ray powder diffraction (XRD) and differential scanning calorimetry (DSC). Each form can be isolated in substantially pure form under the conditions described. Further, the forms may be interconverted by procedures taught herein.
It has a melting point of about 138° C. to about 140° C., which is the highest of the four forms. Due to its increased stability, it is commonly used for drug formulation. All other forms may be converted into Form 1 during drying at about 60° C. to about 110° C. Conversion and drying is preferably done in a dryer oven at about 70° C. to about 110° C. under reduced pressure. More preferred is about 75° C. to about 85° C. Form 5 is converted to Form 1 by heating to 95° C under reduced pressure. Forms 2 and 3 may also be converted into Form 1 using a hydrocarbon slurry at about 65° C. to about 75° C. Heptane is the most preferred hydrocarbon for this conversion. Form 4, however, may not convert to Form 1 under these conditions because it is soluble at about 70° C. Form 1 may be directly crystallized from heptane when the saturated solution is seeded at about 60° C. to about 75° C. and held at about this temperature until Form 1 starts crystallizing.
The thermal properties of Efavirenz were characterized with differential scanning calorimetry using a TA Instruments DSC 910, with data analysis via a TA Instruments Thermal Analyzer 2100. Samples were placed in sealed aluminum pans for analysis with an empty aluminum pan serving as the reference. Heating rates of 5° C. per minute or 10° C. per minute were employed over a temperature range of 25° C. to 200° C. The instrument was calibrated with a indium standard.

thermodynamic stability among the crystalline forms (solid forms compared, highest melting point): most thermodynamically stable form
SMILES: O=C1Nc2ccc(Cl)cc2[C@@](C#CC2CC2)(C(F)(F)F)O1 [Form 1, (S)-6-chloro-4-cyclopropylethynyl-4-trifluoromethyl-1,4-dihydro-2H-3,1-benzoxazin-2-one]

stability (inferred from the melting point observed by differential scanning calorimetry): exceptional stability
SMILES: O=C1Nc2ccc(Cl)cc2[C@@](C#CC2CC2)(C(F)(F)F)O1 [Form 2, (S)-6-chloro-4-cyclopropylethynyl-4-trifluoromethyl-1,4-dihydro-2H-3,1-benzoxazin-2-one]

stability of the form in solution slurries (solution slurries of Efavirenz at room temperature): most stable form
SMILES: O=C1Nc2ccc(Cl)cc2[C@@](C#CC2CC2)(C(F)(F)F)O1 [Form 3, (S)-6-chloro-4-cyclopropylethynyl-4-trifluoromethyl-1,4-dihydro-2H-3,1-benzoxazin-2-one]

SMILES: O=C1Nc2ccc(Cl)cc2[C@@](C#CC2CC2)(C(F)(F)F)O1 [Form 5, (S)-6-chloro-4-cyclopropylethynyl-4-trifluoromethyl-1,4-dihydro-2H-3,1-benzoxazin-2-one]
thermodynamic stability among the crystalline forms (below 40° C.): most thermodynamically stable crystalline form
